Patent US7741472B2, “Polynucleotide containing a phosphate mimetic” (Roche Diagnostics Operations, Inc., priority 2005, dated 2010)
Strand notation (5' to 3'): a small letter for the sugar, then the base; units joined by * are phosphorothioate-linked, units joined directly phosphodiester-linked; [ ] holds rarer units or linkages, { } end groups; capitals alone tell only the bases. [RhoB] = phosphoramidate linkage P=N-S(O)2-rhodamine-B replacing P=O; d = 2'-deoxy (DNA); {P} = phosphate

Assays:
factor V DNA = assay: Real time PCR of factor V DNA with fluorescein/lissamine FRET hybridization probes; assay type: biochemical; settings: LIGHTCYCLER 2.0, 610 nm channel, unmodified fluorescein donor probe
Method: Primers were used in combination with a pair of fluorescein/lissamine FRET hybridization probes where Lissamine (rhodamineB) acted as a FRET acceptor. Quantification curves were recorded and the cp value was determined as a function of the concentration of the target nucleic acid.
(§1) A teal time PCR and melting curve analysis were carried out according to example 6 for the amplification of 10^4 and 10^6 copies of a factor V DNA fragment. A fluorescein donor probe according to example 6 (SEQ ID NO: 4) which was not further modified and a FRET acceptor probe according to example 7b (SEQ ID NO: 3) were used for this.
The fluorescence signal was measured in the 610 nm detection channel. The 610/530 background correction mode was used to normalize the raw signal. A cp value of 22 was determined for 10^6 copies and a cp of 26 was determined for 10^4 copies.

[1] = system: factor V DNA fragment, wild type; assay: Melting curve analysis with lissamine acceptor probe, wild type; assay type: binding; settings: 10^6 copies
Method: as §1
(§2) The melting point for the wild type was determined as 64.69° C. and 56.24° C. was determined as the melting point for the mutant (10^6 copies).

[2] = system: factor V DNA fragment, mutant; assay: Melting curve analysis with lissamine acceptor probe, mutant; assay type: binding; settings: 10^6 copies
Method: as §1, §2

human Factor V DNA = assay: Real time PCR with modified primers (crossing point); assay type: biochemical; settings: LIGHTCYCLER 1.2, primer combinations SEQ ID NO: 1 / SEQ ID NO: 2, 640 nm channel
Method: A quantitative real time PCR of human Factor V DNA was carried out on a LIGHTCYCLER 1.2 instrument (Roche Diagnostics GmbH) in order to analyse the effect of phosphate mimetics on primer elongation. The P═N-pPh-NAc mimetic which was introduced at different positions of a primer pair used for amplification of human Factor V DNA. The modified primers were, synthesized according to example 4. Purification was done by the Reversed Phase chromatography of example 3 in the Trityl on mode. Detritylation was performed by treating with 80% acetic acid for 20 min.
This primers were used in combination with a pair of fluorescein/LIGHTCYCLER Red 640 FRET hybridization probes according to example 6. The Fluorescein probe and the 5′ LIGHTCYCLER Red 640 probe (SEQ ID NO: 3 and 4) were kept constant. Various combinations of modified and unmodified primers were tested. As reference unmodified primers were used. The effect on the crossing point which is a measure for the amplification efficiency was evaluated.
The real time monitoring was carried out over 45 cycles using the 2nd derivative threshold method in which, the fluorescence signal was measured in a detection channel that is specific for the LIGHTCYCLER Red 640 emission (at 640 nm) and the arithmetic background correction mode was used to normalize the initial signal.
The absolute fluorescence signals are measured as above in the 640 nm channel and subsequently the first derivative was calculated from this. The crossing points are shown in the following table as a measure for the amplification efficiency when using different modified primers.

Substance | cp value (factor V DNA; 10^4 copies) | cp value (factor V DNA; 10^6 copies) | melting point for the wild type [1] [°C] | melting point for the mutant [2] [°C] | Cp (crossing point, measure for the amplification efficiency) (human Factor V DNA)
FRET acceptor probe according to example 7b: SEQ ID NO: 3 FRET acceptor probe; p* = P = NS(O)2-rhodamine-B (DNA dA[RhoB]dGdGdGdAdTdCdTdGdCdTdCdTdTdAdCdAdGdAdTdTdAdGdAdAdGdTdAdGdTdCdCdTdAdTdT-{P}) | 26 | 22 | 64.69 | 56.24 | –
5′ GAGAGACATCGCCTCTGGGCTA / 5′ TGT TAT CAC ACT p1GGT GCT AA: primer combination; p1 is a P = N-pPh-NAc mimetic | – | – | – | – | 21.36
